Test results reported in patent publication US20080119515A1, “Heterocyclic Kinase Inhibitors: Methods of Use and Synthesis” (priority 2003, published 2008).

Biological target: T1, ZAP-70 (Homo sapiens, UniProt P43403)
T1 sequence (P43403 1-619): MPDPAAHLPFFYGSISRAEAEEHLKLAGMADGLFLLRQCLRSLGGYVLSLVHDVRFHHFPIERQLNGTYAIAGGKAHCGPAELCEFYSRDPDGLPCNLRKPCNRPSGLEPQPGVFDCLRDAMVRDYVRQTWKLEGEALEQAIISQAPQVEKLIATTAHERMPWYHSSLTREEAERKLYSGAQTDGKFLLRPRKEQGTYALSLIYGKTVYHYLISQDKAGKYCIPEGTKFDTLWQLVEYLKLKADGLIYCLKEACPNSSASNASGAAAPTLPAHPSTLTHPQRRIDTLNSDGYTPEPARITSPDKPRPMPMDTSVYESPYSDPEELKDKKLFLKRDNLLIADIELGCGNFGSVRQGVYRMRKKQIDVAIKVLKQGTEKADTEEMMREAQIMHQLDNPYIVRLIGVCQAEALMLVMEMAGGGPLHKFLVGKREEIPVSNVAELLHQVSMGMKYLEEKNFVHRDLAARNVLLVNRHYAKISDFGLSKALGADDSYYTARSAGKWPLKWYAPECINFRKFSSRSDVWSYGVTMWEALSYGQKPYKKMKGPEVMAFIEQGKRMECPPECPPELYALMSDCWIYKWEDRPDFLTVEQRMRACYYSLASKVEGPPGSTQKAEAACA
Experiment: DELFIA assay (ZAP-70 kinase, phosphorylation of biotinylated poly(glu,tyr))
Format: biochemical
Conditions: ZAP-70 DELFIA, class symbols; read-out: Activity (IC50 in vitro)
Procedure: Before initiation of kinase reactions, compounds were pre-incubated with ZAP-70. Pre-incubation reactions contained 62.5 mM Mops pH 7.0, 12.5 mM MgCl2, 12.5% glycerol, 3.1 nM ZAP-70, 62.5 nM biotinylated poly(glu,Tyr), 0.1 mg/ml BSA, 6.25% DMSO and […] compound in a total volume of […]. After a 10 minute room temperature incubation, 10 ml of 5 mM ATP was added to start the reaction. Reactions were incubated at room temperature for 30 minutes then terminated by addition of 5 ml 500 mM EDTA. The amount of phosphate transferred to biotinylated poly(glu,tyr) was measured using the Dissociation Enhanced Lanthanide Fluorescence Immuno-assay (DELFIA) from Perkin Elmer according to manufacturers protocol. Briefly, biotinylated […] was captured on streptavidin coated plates, washed twice, then incubated with Europium labeled-anti-phosphotyrosine antibody. Free antibody was removed with six washes, Europium was dissociated from the antibody, and Europium fluorescence was measured at using an excitation wavelength of 340 nm and an emission wavelength of 615 nm.

| SMILES | IC50 |
| --- | --- |
| O=C(c1cc(Nc2cccc(Br)c2)nc2ccc(-c3ccc4c(c3)OCO4)cc12)N1CCC[C@H]1CN1CCCC1 [Compound 18] | < 1 µM |
| O=C(c1cc(N(CCO)Cc2ccccc2)nc2ccc(-c3ccc4c(c3)OCO4)cc12)N1CCC[C@H]1CN1CCCC1 [Compound 76] | < 1 µM |
| N#Cc1ccc(-c2ccc3nc(CCc4ccc(Cl)cc4)cc(C(=O)N4CCC[C@H]4CN4CCCC4)c3c2)cc1 [Compound 390] | > 10 µM |
| CN(Cc1ccccc1Cl)c1cc(C(=O)N2CCC[C@H]2CN2CCCC2)c2cc(-c3ccc(C#N)cc3)ccc2n1 [Compound 211] | > 10 µM |
| O=C(c1cc(CC(O)c2ccc(C(F)(F)F)cc2)nc2ccc(-c3ccc4c(c3)OCO4)cc12)N1CCC[C@H]1CN1CCCC1 (stereo partly shown) [Compound 436] | < 1 µM |
| O=C(c1cc(NCc2ccc(C(F)(F)F)cc2)nc2ccc(-c3ccc4c(c3)OCO4)cc12)N1CCC(CN2CCCC2)C1 (stereo not shown) [Compound 110] | > 10 µM |
| CCCCCCc1cc(C(=O)N2CCC[C@H]2CN2CCCC2)cc(N(C)Cc2ccccc2)n1 [Compound 277] | > 10 µM |
| N#Cc1ccc(-c2ccc3nc(N4CCC(c5cccc(F)c5)C4)cc(C(=O)N4CCC[C@H]4CN4CCCC4)c3c2)cc1 (stereo partly shown) [Compound 263] | > 10 µM |
| N#Cc1ccc(-c2ccc3nc(NCCc4ccccc4Cl)cc(C(=O)N4CCC[C@H]4CN4CCCC4)c3c2)cc1 [Compound 156] | > 10 µM |
| CC(C)(C)/C=C/c1ccc2nc(NCc3ccc(C(F)(F)F)cc3)cc(C(=O)N3CCC[C@H]3CN3CCCC3)c2c1 [Compound 422] | > 10 µM |
| O=C(c1cc(Cc2ccc(Cl)cc2)nc2ccc(-c3ccc4c(c3)OCO4)cc12)N1CCC[C@H]1CN1CCCC1 [Compound 400] | < 1 µM |
| N#Cc1ccc(-c2ccc3nc(NCc4cccc(Cl)c4F)cc(C(=O)N4CCC[C@H]4CN4CCCC4)c3c2)cc1 [Compound 229] | > 10 µM |
| C[C@@H](Nc1cc(C(=O)N2CCC[C@H]2CN2CCCC2)c2cc(-c3ccc(C#N)cc3)ccc2n1)c1ccccc1 [Compound 201] | > 10 µM |
| N#Cc1ccc(-c2ccc3nc(NCc4cc(F)cc(F)c4)cc(C(=O)N4CCC[C@H]4CN4CCCC4)c3c2)cc1 [Compound 188] | > 10 µM |
| N#Cc1ccc(-c2ccc3nc(N(CCCCO)Cc4ccccc4)cc(C(=O)N4CCC[C@H]4CN4CCCC4)c3c2)cc1 [Compound 247] | > 10 µM |
| FC(F)(F)c1ccc(CNc2cc(N3CCC[C@H]3CN3CCCC3)nc3ccc(-c4ccc5c(c4)OCO5)cc23)cc1 [Compound 104] | 1 to 10 µM |
| O=C(c1cc(NCc2ccc(C(F)(F)F)cc2)nc2ccc(-c3ccc(O)cc3)cc12)N1CCC[C@H]1CN1CCCC1 [Compound 419] | > 10 µM |
| O=C(c1cc(Nc2ccc3c(c2)OCO3)nc2ccccc12)N1CCC[C@H]1CN1CCCC1 [Compound 8] | > 10 µM |
| O=C(c1cc(N2CCOCC2)nc2ccc(-c3ccc4c(c3)OCO4)cc12)N1CCC[C@H]1CN1CCOCC1 [Compound 5] | 1 to 10 µM |
| O=C(c1cc(NCc2ccc(C(F)(F)F)cc2)nc2ccc(-c3ccccn3)cc12)N1CCC[C@H]1CN1CCCC1 [Compound 333] | > 10 µM |
| CN(C)CCN1CCN(c2ccc(Cc3cc(C(=O)N4CCCC4CN4CCCC4)c4cc(-c5ccc6c(c5)OCO6)ccc4n3)cc2)CC1 (stereo not shown) [Compound 442] | < 1 µM |
| C[C@@H](c1ccccc1)N(C)c1cc(C(=O)N2CCC[C@H]2CN2CCCC2)c2cc(-c3ccc(C#N)cc3)ccc2n1 [Compound 199] | > 10 µM |
| CSc1ccccc1CNc1cc(C(=O)N2CCC[C@H]2CN2CCCC2)c2cc(-c3ccc(C#N)cc3)ccc2n1 [Compound 228] | > 10 µM |
| O=C(c1cc(NCc2ccc(C(F)(F)F)cc2)nc2ccc(-c3ccc(F)c(F)c3)cc12)N1CCC[C@H]1CN1CCCC1 [Compound 344] | < 1 µM |
| O=C(c1cc(NCc2ccc(C(F)(F)F)cc2)nc2ccc(-c3cccc(F)c3)cc12)N1CCC[C@H]1CN1CCCC1 [Compound 304] | 1 to 10 µM |
| N#Cc1ncccc1-c1ccc2nc(NCc3ccc(C(F)(F)F)cc3)cc(C(=O)N3CCC[C@H]3CN3CCCC3)c2c1 [Compound 343] | > 10 µM |
| O=C(c1cc(NCc2ccc(C(F)(F)F)cc2)nc2ccc(-c3ccc4c(c3)OC(F)(F)O4)cc12)N1CCC[C@H]1CN1CCCC1 [Compound 348] | < 1 µM |
| O=C(c1cc(NCc2ccc(Cl)cc2)nc2ccc(-c3ccc4c(c3)OCO4)cc12)N1CCC[C@H]1CN1CCCC1 [Compound 35] | < 1 µM |

| SMILES | IC50 |
| --- | --- |
| CN(Cc1ccc(Cl)c(Cl)c1)c1cc(C(=O)N2CCC[C@H]2CN2CCCC2)c2cc(-c3ccc(C#N)cc3)ccc2n1 [Compound 248] | > 10 µM |
| O=C(c1cc(Cc2ccc(Cl)cc2Cl)nc2ccc(-c3ccc4c(c3)OCO4)cc12)N1CCC[C@H]1CN1CCCC1 [Compound 401] | < 1 µM |
| COc1cc(C(=O)N2CCC[C@H]2CN2CCCC2)cc(NCc2ccccc2)n1 [Compound 7] | > 10 µM |
| C[C@H](Nc1cc(C(=O)N2CCC[C@H]2CN2CCCC2)c2cc(-c3ccc(C#N)cc3)ccc2n1)c1ccccc1 [Compound 176] | > 10 µM |
| N#Cc1ccc(-c2ccc3nc(N4CCc5ccccc5C4)cc(C(=O)N4CCC[C@H]4CN4CCCC4)c3c2)cc1 [Compound 153] | > 10 µM |
| O=C(c1cc(N[C@@H]2CCc3ccccc32)nc2ccc(-c3ccc4c(c3)OCO4)cc12)N1CCC[C@H]1CN1CCCC1 [Compound 42] | 1 to 10 µM |
| N#Cc1ccc(-c2ccc3nc(NC(CO)Cc4ccccc4)cc(C(=O)N4CCC[C@H]4CN4CCCC4)c3c2)cc1 (stereo partly shown) [Compound 315] | < 1 µM |
| CN(CCc1cccs1)c1cc(C(=O)N2CCC[C@H]2CN2CCCC2)c2cc(-c3ccc(C#N)cc3)ccc2n1 [Compound 273] | > 10 µM |
| O=C(c1cc(NCc2ccc(C(F)(F)F)cc2)nc2ccc(-c3ccc4occc4c3)cc12)N1CCC[C@H]1CN1CCCC1 [Compound 349] | < 1 µM |
| Cc1c(-c2ccc3nc(NCc4ccc(C(F)(F)F)cc4)cc(C(=O)N4CCC[C@H]4CN4CCCC4)c3c2)sc2ccc(Cl)cc12 [Compound 353] | > 10 µM |
| N#Cc1ccc(-c2ccc3nc(NCc4ccc(F)cc4F)cc(C(=O)N4CCC[C@H]4CN4CCCC4)c3c2)cc1 [Compound 198] | > 10 µM |
| O=C(c1cc(-c2ccc(Cl)c(Cl)c2)nc2ccc(-c3ccc(Cl)c(Cl)c3)cc12)N1CCC[C@H]1CN1CCCC1 [Compound 97] | 1 to 10 µM |
| COc1cccc(CCNc2cc(C(=O)N3CCC[C@H]3CN3CCCC3)c3cc(-c4ccc(C#N)cc4)ccc3n2)c1 [Compound 197] | > 10 µM |
| O=C(NCCc1ccccc1)c1cc(C(=O)N2CCC[C@H]2CN2CCCC2)c2cc(-c3ccc4c(c3)OCO4)ccc2n1 [Compound 141] | 1 to 10 µM |
| N#Cc1ccc(-c2ccc3nc(NCc4csc5ccc(Cl)cc45)cc(C(=O)N4CCC[C@H]4CN4CCCC4)c3c2)cc1 [Compound 242] | > 10 µM |
| N#Cc1ccc(-c2ccc3nc(NCCc4ccccc4)cc(C(=O)N4CCC[C@H]4CN4CCCC4)c3c2)cc1 [Compound 170] | > 10 µM |
| O=C(c1cc(Sc2cccc(C(F)(F)F)c2)nc2ccc(-c3ccc4c(c3)OCO4)cc12)N1CCC[C@H]1CN1CCCC1 [Compound 324] | < 1 µM |
| O=C(c1cc(OCc2ccccc2)nc2ccc(-c3ccc4c(c3)OCO4)cc12)N1CCC[C@H]1CN1CCCC1 [Compound 23] | < 1 µM |
| N#Cc1ccc(-c2ccc3nc(N4CCCC4c4ccc(Cl)cc4)cc(C(=O)N4CCC[C@H]4CN4CCCC4)c3c2)cc1 (stereo partly shown) [Compound 259] | > 10 µM |
| CN(C)[C@@H]1CCN(c2cc(C(=O)N3CCC[C@H]3CN3CCCC3)c3cc(-c4ccc5c(c4)OCO5)ccc3n2)C1 [Compound 75] | 1 to 10 µM |
| O=C(c1cc(NCc2ccc(C(F)(F)F)cc2)nc2ccc(-c3ccc(Cl)c(Cl)c3)cc12)N1CCC[C@H]1CN1CCCC1 [Compound 105] | < 1 µM |
| N#Cc1ccc(-c2ccc3nc(NCc4cccc(Br)c4)cc(C(=O)N4CCC[C@H]4CN4CCCC4)c3c2)cc1 [Compound 165] | > 10 µM |
| O=C(c1cc(NCCN2CCCCC2)nc2ccc(-c3ccc4c(c3)OCO4)cc12)N1CCC[C@H]1CN1CCCC1 [Compound 32] | > 10 µM |
| CN(C)c1ccc(Nc2cc(/C=C/c3ccc(F)cc3)nc3ccc(-c4ccc5c(c4)OCO5)cc23)cc1 [Compound 412] | > 10 µM |
| N#Cc1ccc(-c2ccc3nc(N4CCCC(c5cccc(F)c5)C4)cc(C(=O)N4CCC[C@H]4CN4CCCC4)c3c2)cc1 (stereo partly shown) [Compound 268] | > 10 µM |
| CN1CCN(c2cc(C(=O)N3CCC[C@H]3CN3CCCC3)c3cc(-c4ccc5c(c4)OCO5)ccc3n2)CC1 [Compound 61] | 1 to 10 µM |
| CC(=O)N[C@H]1CCN(c2cc(C(=O)N3CCC[C@H]3CN3CCCC3)c3cc(-c4ccc5c(c4)OCO5)ccc3n2)C1 [Compound 69] | > 10 µM |
